System: human mixed lymphocyte reaction (MLR)
Experiment: human mixed lymphocyte reaction (MLR), serum free variation
Assay type: cell-based
Details: Homo sapiens, Lymphocyte, serum-free medium AIM V, Table 3
Protocol: In vitro Assay of Biological Activity (Serum Free MLR)
The in viitro immunosuppressant activity of the compounds of the present invention can also be determined using a variation of the human mixed lymphocyte reaction (MLR) assay described by Kino, T. et al. in Transplantation Proceedings, XIX(5):36-39, Suppl. 6 (1987). In this assay, the cell culture was performed in a serum-free medium, AIM V (GibcoBRL Life Technologies, Grand Island, N.Y.), instead of the usual RPMI 1640 plus 10% heat-inactivated fetal bovine serum medium. The final cell concentrations of the responder and stimulator peripheral blood mononuclear cells were, respectively, 5×10^5/mL and 2×10^6/mL of cells pooled from four donors.

Compound | IC50
CC[C@@H]1/C=C(\C)C[C@H](C)C[C@H](OC)[C@H]2O[C@@](O)(C(=O)C(=O)N3CCCC[C@H]3C(=O)O[C@H](/C(C)=C/[C@@H]3CC[C@H]([S+]([O-])c4ccc(O)cc4)[C@H](OC)C3)[C@H](C)[C@@H](O)CC1=O)[C@H](C)C[C@@H]2OC (stereo partly shown) [Example 48] | 0.9 nM
CCC(CC)OC(=O)CC[S+]([O-])[C@H]1CC[C@@H](/C=C(\C)[C@H]2OC(=O)[C@@H]3CCCCN3C(=O)C(=O)[C@]3(O)O[C@H]([C@@H](OC)C[C@@H](C)C/C(C)=C/[C@@H](CC)C(=O)C[C@H](O)[C@H]2C)[C@@H](OC)C[C@H]3C)C[C@H]1OC (single isomer, unassigned) [Example 67] | 25.6 nM
CC[C@@H]1/C=C(\C)C[C@H](C)C[C@H](OC)[C@H]2O[C@@](O)(C(=O)C(=O)N3CCCC[C@H]3C(=O)O[C@H](/C(C)=C/[C@@H]3CC[C@H](SC(=O)C(C)NC(C)=O)[C@H](OC)C3)[C@H](C)[C@@H](O)CC1=O)[C@H](C)C[C@@H]2OC (single isomer, unassigned) [Example 117A] | 2.4 nM
CC[C@@H]1/C=C(\C)C[C@H](C)C[C@H](OC)[C@H]2O[C@@](O)(C(=O)C(=O)N3CCCC[C@H]3C(=O)O[C@H](/C(C)=C/[C@@H]3CC[C@H](SC(=O)c4ccncc4)[C@H](OC)C3)[C@H](C)[C@@H](O)CC1=O)[C@H](C)C[C@@H]2OC [Example 114] | 0.14 nM
CC[C@@H]1/C=C(\C)C[C@H](C)C[C@H](OC)[C@H]2O[C@@](O)(C(=O)C(=O)N3CCCC[C@H]3C(=O)O[C@H](/C(C)=C/[C@@H]3CC[C@H](SC(=O)CNC(N)=O)[C@H](OC)C3)[C@H](C)[C@@H](O)CC1=O)[C@H](C)C[C@@H]2OC [Example 121] | 2.6 nM
CCOC(=O)CC[S+]([O-])[C@H]1CC[C@@H](/C=C(\C)[C@H]2OC(=O)[C@@H]3CCCCN3C(=O)C(=O)[C@]3(O)O[C@H]([C@@H](OC)C[C@@H](C)C/C(C)=C/[C@@H](CC)C(=O)C[C@H](O)[C@H]2C)[C@@H](OC)C[C@H]3C)C[C@H]1OC (stereo partly shown) [Example 60] | 6.1 nM
CC[C@@H]1/C=C(\C)C[C@H](C)C[C@H](OC)[C@H]2O[C@@](O)(C(=O)C(=O)N3CCCC[C@H]3C(=O)O[C@H](/C(C)=C/[C@@H]3CC[C@H](SC(=O)N(CC)CC)[C@H](OC)C3)[C@H](C)[C@@H](O)CC1=O)[C@H](C)C[C@@H]2OC [Example 97] | 0.5 nM
CC[C@@H]1/C=C(\C)C[C@H](C)C[C@H](OC)[C@H]2O[C@@](O)(C(=O)C(=O)N3CCCC[C@H]3C(=O)O[C@H](/C(C)=C/[C@@H]3CC[C@H](S(=O)(=O)CCO)[C@H](OC)C3)[C@H](C)[C@@H](O)CC1=O)[C@H](C)C[C@@H]2OC [Example 51] | 0.17 nM
CCC1C=C(C)CC(C)CC(OC)C2OC(O)(C(=O)C(=O)N3CCCCC3C(=O)OC(C(C)=CC3CCC(SCC(=O)OCCO)C(OC)C3)C(C)C(O)CC1=O)C(C)CC2OC (stereo not shown) [Example 34] | 60.8 nM
CCC1C=C(C)CC(C)CC(OC)C2OC(O)(C(=O)C(=O)N3CCCCC3C(=O)OC(C(C)=CC3CCC(SCCC(=O)N4CCOCC4)C(OC)C3)C(C)C(O)CC1=O)C(C)CC2OC (stereo not shown) [Example 23] | 0.04 nM
CC[C@@H]1/C=C(\C)C[C@H](C)C[C@H](OC)[C@H]2O[C@@](O)(C(=O)C(=O)N3CCCC[C@H]3C(=O)O[C@H](/C(C)=C/[C@@H]3CC[C@H]([S+]([O-])CCC(=O)N(C)O)[C@H](OC)C3)[C@H](C)[C@@H](O)CC1=O)[C@H](C)C[C@@H]2OC (single isomer, unassigned) [Example 69] | 6.24 nM
CCC1C=C(C)CC(C)CC(OC)C2OC(O)(C(=O)C(=O)N3CCCCC3C(=O)OC(C(C)=CC3CCC(SCC(=O)N(C)O)C(OC)C3)C(C)C(O)CC1=O)C(C)CC2OC (stereo not shown) [Example 39] | 4.8 nM
CC[C@@H]1/C=C(\C)C[C@H](C)C[C@H](OC)[C@H]2O[C@@](O)(C(=O)C(=O)N3CCCC[C@H]3C(=O)O[C@H](/C(C)=C/[C@@H]3CC[C@H](S(=O)(=O)c4ccc(O)cc4)[C@H](OC)C3)[C@H](C)[C@@H](O)CC1=O)[C@H](C)C[C@@H]2OC [Example 49] | 2.5 nM
CC[C@@H]1/C=C(\C)C[C@H](C)C[C@H](OC)[C@H]2O[C@@](O)(C(=O)C(=O)N3CCCC[C@H]3C(=O)O[C@H](/C(C)=C/[C@@H]3CC[C@H](SC(=O)C(=O)OC)[C@H](OC)C3)[C@H](C)[C@@H](O)CC1=O)[C@H](C)C[C@@H]2OC [Example 111] | 4.1 nM
CC[C@@H]1/C=C(\C)C[C@H](C)C[C@H](OC)[C@H]2O[C@@](O)(C(=O)C(=O)N3CCCC[C@H]3C(=O)O[C@H](/C(C)=C/[C@@H]3CC[C@H]([S+]([O-])CC(=O)O)[C@H](OC)C3)[C@H](C)[C@@H](O)CC1=O)[C@H](C)C[C@@H]2OC (single isomer, unassigned) [Example 73] | 9.6 nM
CC[C@@H]1/C=C(\C)C[C@H](C)C[C@H](OC)[C@H]2O[C@@](O)(C(=O)C(=O)N3CCCC[C@H]3C(=O)O[C@H](/C(C)=C/[C@@H]3CC[C@H]([S+]([O-])CCO)[C@H](OC)C3)[C@H](C)[C@@H](O)CC1=O)[C@H](C)C[C@@H]2OC (stereo partly shown) [Example 50] | 0.24 nM

Compound | IC50
CC[C@@H]1/C=C(\C)C[C@H](C)C[C@H](OC)[C@H]2O[C@@](O)(C(=O)C(=O)N3CCCC[C@H]3C(=O)O[C@H](/C(C)=C/[C@@H]3CC[C@H](S(=O)(=O)CC(=O)OCc4ccccc4)[C@H](OC)C3)[C@H](C)[C@@H](O)CC1=O)[C@H](C)C[C@@H]2OC [Example 56] | 8.1 nM
CCC1C=C(C)CC(C)CC(OC)C2OC(O)(C(=O)C(=O)N3CCCCC3C(=O)OC(C(C)=CC3CCC(SCC(C)C(=O)OC)C(OC)C3)C(C)C(O)CC1=O)C(C)CC2OC (stereo not shown) [Example 40] | 14.9 nM
CCC1C=C(C)CC(C)CC(OC)C2OC(O)(C(=O)C(=O)N3CCCCC3C(=O)OC(C(C)=CC3CCC(SCCC(=O)Oc4ccccc4)C(OC)C3)C(C)C(O)CC1=O)C(C)CC2OC (stereo not shown) [Example 8] | 1.8 nM
CC[C@@H]1/C=C(\C)C[C@H](C)C[C@H](OC)[C@H]2O[C@@](O)(C(=O)C(=O)N3CCCC[C@H]3C(=O)O[C@H](/C(C)=C/[C@@H]3CC[C@H](S(=O)(=O)CC(=O)OC(C)(C)C)[C@H](OC)C3)[C@H](C)[C@@H](O)CC1=O)[C@H](C)C[C@@H]2OC [Example 58] | 2.1 nM
CCC1C=C(C)CC(C)CC(OC)C2OC(O)(C(=O)C(=O)N3CCCCC3C(=O)OC(C(C)=CC3CCC(SCCC(=O)NO)C(OC)C3)C(C)C(O)CC1=O)C(C)CC2OC (stereo not shown) [Example 24] | 0.8 nM
CCC1C=C(C)CC(C)CC(OC)C2OC(O)(C(=O)C(=O)N3CCCCC3C(=O)OC(C(C)=CC3CCC(SCC(=O)OC(C)(C)C)C(OC)C3)C(C)C(O)CC1=O)C(C)CC2OC (stereo not shown) [Example 29] | 1.8 nM
CC[C@@H]1/C=C(\C)C[C@H](C)C[C@H](OC)[C@H]2O[C@@](O)(C(=O)C(=O)N3CCCC[C@H]3C(=O)O[C@H](/C(C)=C/[C@@H]3CC[C@H](S(=O)(=O)CC(=O)OC)[C@H](OC)C3)[C@H](C)[C@@H](O)CC1=O)[C@H](C)C[C@@H]2OC [Example 57] | 2 nM
CC[C@@H]1/C=C(\C)C[C@H](C)C[C@H](OC)[C@H]2O[C@@](O)(C(=O)C(=O)N3CCCC[C@H]3C(=O)O[C@H](/C(C)=C/[C@@H]3CC[C@H](SCC(C)=NNC(N)=O)[C@H](OC)C3)[C@H](C)[C@@H](O)CC1=O)[C@H](C)C[C@@H]2OC [Example 81A] | 1.3 nM
CCC(=O)S[C@H]1CC[C@@H](/C=C(\C)[C@H]2OC(=O)[C@@H]3CCCCN3C(=O)C(=O)[C@]3(O)O[C@H]([C@@H](OC)C[C@@H](C)C/C(C)=C/[C@@H](CC)C(=O)C[C@H](O)[C@H]2C)[C@@H](OC)C[C@H]3C)C[C@H]1OC [Example 88] | 0.61 nM
CC[C@@H]1/C=C(\C)C[C@H](C)C[C@H](OC)[C@H]2O[C@@](O)(C(=O)C(=O)N3CCCC[C@H]3C(=O)O[C@H](/C(C)=C/[C@@H]3CC[C@H](SC(=O)[C@@H](NC(C)=O)[C@@H](C)O)[C@H](OC)C3)[C@H](C)[C@@H](O)CC1=O)[C@H](C)C[C@@H]2OC [Example 122] | 1.5 nM
CCC1C=C(C)CC(C)CC(OC)C2OC(O)(C(=O)C(=O)N3CCCCC3C(=O)OC(C(C)=CC3CCC(SCC(=O)OC(C)C)C(OC)C3)C(C)C(O)CC1=O)C(C)CC2OC (stereo not shown) [Example 32] | 6.5 nM
CCC1C=C(C)CC(C)CC(OC)C2OC(O)(C(=O)C(=O)N3CCCCC3C(=O)OC(C(C)=CC3CCC(SCCC(=O)OCCOC)C(OC)C3)C(C)C(O)CC1=O)C(C)CC2OC (stereo not shown) [Example 11] | 2.1 nM
CCC1C=C(C)CC(C)CC(OC)C2OC(O)(C(=O)C(=O)N3CCCCC3C(=O)OC(C(C)=CC3CCC(SCC(=O)OCc4ccccc4)C(OC)C3)C(C)C(O)CC1=O)C(C)CC2OC (stereo not shown) [Example 27] | 3.7 nM
CCOC(=O)CCSC1CCC(C=C(C)C2OC(=O)C3CCCCN3C(=O)C(=O)C3(O)OC(C(OC)CC(C)CC(C)=CC(CC)C(=O)CC(O)C2C)C(OC)CC3C)CC1OC (stereo not shown) [Example 10] | 3.2 nM
CCC1C=C(C)CC(C)CC(OC)C2OC(O)(C(=O)C(=O)N3CCCCC3C(=O)OC(C(C)=CC3CCC(SCCC(=O)N(O)C(C)C)C(OC)C3)C(C)C(O)CC1=O)C(C)CC2OC (stereo not shown) [Example 26] | 7 nM
CCOC(=O)CSC1CCC(C=C(C)C2OC(=O)C3CCCCN3C(=O)C(=O)C3(O)OC(C(OC)CC(C)CC(C)=CC(CC)C(=O)CC(O)C2C)C(OC)CC3C)CC1OC (stereo not shown) [Example 31] | 8.2 nM

Same assay, conditions: Lymphocyte, serum-free medium AIM V, Table 3

Compound | IC50
CC[C@@H]1/C=C(\C)C[C@H](C)C[C@H](OC)[C@H]2O[C@@](O)(C(=O)C(=O)N3CCCC[C@H]3C(=O)O[C@H](/C(C)=C/[C@@H]3CC[C@H](SC(=O)NCC(=O)OCC[Si](C)(C)C)[C@H](OC)C3)[C@H](C)[C@@H](O)CC1=O)[C@H](C)C[C@@H]2OC [Example 100] | 5.8 nM

Same assay, conditions: serum-free medium AIM V, Table 3

Compound | IC50
CC[C@@H]1/C=C(\C)C[C@H](C)C[C@H](OC)[C@H]2O[C@@](O)(C(=O)C(=O)N3CCCC[C@H]3C(=O)O[C@H](/C(C)=C/[C@@H]3CC[C@H](SCC(C)=NO)[C@H](OC)C3)[C@H](C)[C@@H](O)CC1=O)[C@H](C)C[C@@H]2OC [Example 83B] | 67 nM
